Consider four molecules from patent US7030102B1, “Highly bioavailable coenzyme Q-10 cyclodextrin complex” (BioActives, LLC, priority 2003, dated 2006).

Data set [1] has as its system Caco2 intestinal cell model. Conditions: Totterman et al. 1997, Ono et al. 2001; cited from earlier work.
For the next data set, the system named is Caco2 cells. Briefly: In vitro uptake of CoQ-10 in Caco2 cells. Type of data set: in vitro ADME, human. Conditions: 100 μg CoQ-10/flask, sum of reduced and oxidized forms, control = endogenous level. Here is the method: The cellular uptake of the CoQ-10 from the cyclodextrin complexes was determined in vitro in model cell culture systems. For example, the uptake was determined using an in vitro Caco2 intestinal cell culture model indicative of in vivo intestinal absorption. This cell line has been used as a model system to examine the selective characteristics of intestinal absorption of compounds, such as vitamin E (Traber et al., 1990), retinol, beta lactoglobulin, palmitic acid (Puyol et al., 1995), carotenoids (Garrett et al., 1999), and polyamines (Turchanowa et al., 2001). […] CoQ-10 incorporated into mixed micelles was used for comparison.
The uptake of CoQ-10 from the cyclodextrin complex dried by different methods was compared to commercially available CoQ-10 powder (99% pure, used in hard capsules) and CoQ-10 powder incorporated into mixed micelles, simulating the digestive process.
The mixed micelles were prepared by the method of Garrett et al. (1999) using sodium taurocholate (bile salt), mono-acylglycerol, oleic acid, phosphatidyl choline, lysophosphatidylcholine, and CoQ-10 in phosphate buffered saline (PBS). The CoQ-10/cyclodextrin complexes were dispersed in PBS. The stock solutions contained 30 mg CoQ-10/10 ml.
The cellular uptake of CoQ-10 as a function of media concentration and exposure time was determined based on the method of Garrett et al. (1999). Caco-2 (ATCC, Rockville, Md.) cells were maintained in high glucose DMEM with 15 mM HEPES and 10% heat inactivated fetal bovine serum, nonessential amino acids, glutamine, and pyruvate in a humidified atmosphere at 5% CO2 and 37° C. The cells were allowed to reach confluency (5–6 days after subculture) and differentiate (14 days) in 25 cm^2 flasks before the start of the experiment.
The stock test samples were diluted in the culture medium for the experiment. The monolayers were washed with PBS before adding the test samples at known CoQ-10 concentration (100 μg/flask). […] The cultures were incubated as before and the CoQ-10 uptake was terminated at indicated times. […] The chromatograms were monitored at 275 nm.

Consider maltosyl-α-cyclodextrin, for which, in data set [1], the “Cytotoxicity / effect on Caco2 cells” value is listed as “less toxic as compared to α-cyclodextrin”.
For dimethyl β-cyclodextrin, the “Cytotoxicity / effect on Caco2 cells” value in data set [1] is on record as “dose dependent cytotoxicity”.
Turning to `OC[C@H]1O[C@@H]2O[C@H]3[C@H](O)[C@@H](O)[C@@H](O[C@H]4[C@H](O)[C@@H](O)[C@@H](O[C@H]5[C@H](O)[C@@H](O)[C@@H](O[C@H]6[C@H](O)[C@@H](O)[C@@H](O[C@H]7[C@H](O)[C@@H](O)[C@@H](O[C@H]8[C@H](O)[C@@H](O)[C@@H](O[C@H]9[C@H](O)[C@@H](O)[C@@H](O[C@H]1[C@H](O)[C@H]2O)O[C@@H]9CO)O[C@@H]8CO)O[C@@H]7CO)O[C@@H]6CO)O[C@@H]5CO)O[C@@H]4CO)O[C@@H]3CO` [γ-Cyclodextrin], the “Cytotoxicity / effect on Caco2 cells” value in data set [1] is reported as “least effect even at a relatively high concentration of 150 mM”.
For the molecule `COC1=C(OC)C(=O)C(C/C=C(\C)CC/C=C(\C)CC/C=C(\C)CC/C=C(\C)CC/C=C(\C)CC/C=C(\C)CC/C=C(\C)CC/C=C(\C)CC/C=C(\C)CCC=C(C)C)=C(C)C1=O` [CoQ-10 Powder, Coenzyme Q-10], the “Cellular Total CoQ-10 (Treated/Control)” value with Caco2 cells (5 hr incubation), in the data set on Caco2 cells (10 hr incubation) and in the data set with Caco2 cells (24 hr incubation) was 1.0 in each case.
